Like-named read-outs stand apart in the source and are kept apart here.

The values that follow come from patent publication US10316017B2, “COT modulators and methods of use thereof” (Gilead Sciences, Inc., priority 2015, dated 2019).

Experiment [1] has as its target T1, human Cot catalytic domain (30-397 amino acids) (Homo sapiens, UniProt P41279).
T1 construct: Purified recombinant human Cot catalytic domain (30-397 amino acids) was purchased from Cama Biosciences; purchased Cama Biosciences (so in the source)
In words: High Throughput Cot Biochemical Assay (KinEASE TR-FRET). As to conditions: read-out: IC50 HTRF. The method, boiled down: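 TR-FRET (KinEASE) read-out: Eu-labelled phospho-specific antibody binds XL665-tagged STK3 peptide (1 μM) phosphorylated by 5 nM human Cot kinase domain (residues 30-397). Reaction at 400 μM ATP, pH 7.0 MOPS buffer with 10 mM MgOAc, 1 mM DTT and 0.1% DMSO.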
In general terms: Time-resolved FRET reads energy transfer from a long-lived donor to a nearby acceptor.

The subject of experiment [2] is TNFα production in LPS-stimulated human monocytes. Put plainly: Cot Monocyte TNFα Cell Based Assay. As to conditions: Homo sapiens, Monocyte, read-out: EC50 TNF. The method, boiled down: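 TNFα release quantified by two-antibody TR-FRET, normalised to unstimulated (0%) and LPS-stimulated (100%) wells. Cells got a 1 h compound exposure at 37° C in 0.5% DMSO before 4 h challenge with 50 pg/ml LPS, at 5,000 cells/well.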

Setting [3] is: Cot KinEASE TR-FRET, 400 μM ATP.
[4] abbreviates: LPS-stimulated human monocytes, TNFα TR-FRET.
[5] abbreviates: Cot biochemical HTRF (KinEASE TR-FRET) assay.
[6] abbreviates: TNFα in LPS-stimulated human monocytes.
Where [7] appears, read: Cot KinEASE TR-FRET (HTRF) biochemical assay, 400 μM ATP.

T1 sequence (P41279 30-397): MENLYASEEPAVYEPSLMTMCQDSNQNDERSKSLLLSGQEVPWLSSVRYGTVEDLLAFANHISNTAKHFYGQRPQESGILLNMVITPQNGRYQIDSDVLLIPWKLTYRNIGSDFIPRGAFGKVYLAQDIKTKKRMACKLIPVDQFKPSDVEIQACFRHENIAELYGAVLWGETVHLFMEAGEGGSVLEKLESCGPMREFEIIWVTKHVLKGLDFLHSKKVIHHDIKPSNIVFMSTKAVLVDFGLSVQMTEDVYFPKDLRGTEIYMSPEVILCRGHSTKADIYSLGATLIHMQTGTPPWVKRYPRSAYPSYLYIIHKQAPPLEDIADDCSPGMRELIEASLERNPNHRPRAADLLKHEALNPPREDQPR

On to `Cc1c(-c2cc[nH]n2)cccc1[C@H](Nc1cc(C#N)c2ncc(C#N)c(NCC(C)(C)C)c2c1)c1cn(C2(C(F)(F)F)CC2)nn1` [Example 1132, (S)-6-(((2-methyl-3-(1H-pyrazol-3-yl)phenyl)(1-(1-(trifluoromethyl)cyclopropyl)-1H-1,2,3-triazol-4-yl)methyl)amino)-4-(neopentylamino)quinoline-3,8-dicarbonitrile], for which the IC50 in experiment [1] (setting [3]) came to 8 nM. Besides, the EC50 in experiment [2] (setting [4]) came to 175 nM.
As to `CCN1CCC(n2cc(C(Nc3cc(Cl)c4ncc(C#N)c(Nc5ccc(F)c(Cl)c5)c4c3)c3cccc(F)c3)nn2)CC1` (stereo not drawn) [Example 907, 8-chloro-4-((3-chloro-4-fluorophenyl)amino)-6-(((1-(1-ethylpiperidin-4-yl)-1H-1,2,3-triazol-4-yl)(3-fluorophenyl)methyl)amino) quinoline-3-carbonitrile], the IC50 in experiment [1] (setting [5]) was 5 nM. Further, in experiment [2] (setting [6]), the EC50 came out at 128 nM.
With `CC[C@@H](C)Nc1c(C#N)cnc2c(Cl)cc(N[C@@H](c3ccccc3)c3cn(C(C)C)nn3)cc12` [Example 589, 4-(((R)-sec-butyl)amino)-8-chloro-6-(((S)-(1-isopropyl-1H-1,2,3-triazol-4-yl)(phenyl)methyl)amino)quinoline-3-carbonitrile], the IC50 in experiment [1] (setting [5]) came to 480 nM. For the same compound, the EC50 in experiment [2] (setting [6]) worked out at 8440 nM.
Turning to `N#Cc1cnc2c(Cl)cc(N[C@@H](c3ccc(F)cc3)c3c[nH]nn3)cc2c1Nc1ccc(F)c(F)c1` [Example 368, (S)-8-chloro-4-((3,4-difluorophenyl)amino)-6-(((4-fluorophenyl)(1H-1,2,3-triazol-4-yl)methyl)amino)quinoline-3-carbonitrile], the half-maximal inhibitory concentration (IC50) in experiment [1] (setting [7]) came out at 50 nM. In experiment [2] (setting [6]), the EC50 was 1130 nM.
For the compound `N#Cc1cnc2c(Cl)cc(N[C@@H](c3cccc(CN4CC(F)(F)C4)c3)c3c[nH]nn3)cc2c1Nc1ccc(Cl)c(Cl)c1F` [Example 518, (S)-8-chloro-4-((3,4-dichloro-2-fluorophenyl)amino)-6-(((3-((3,3-difluoroazetidin-1-yl)methyl)phenyl)(1H-1,2,3-triazol-4-yl)methyl)amino) quinoline-3-carbonitrile], the IC50 in experiment [1] (setting [5]) was 52 nM. For the same compound, the EC50 in experiment [2] (setting [6]) turned out to be 570 nM.
As to `Cn1cc([C@H](Nc2cc(Cl)c3ncc(C#N)c(Nc4ccc(F)c(Cl)c4)c3c2)c2cccc(CN3CCCC3)c2)nn1` [Example 842, (R)-8-chloro-4-((3-chloro-4-fluorophenyl)amino)-6-(((1-methyl-1H-1,2,3-triazol-4-yl)(3-(pyrrolidin-1-ylmethyl)phenyl)methyl)amino) quinoline-3-carbonitrile], the IC50 in experiment [1] (setting [5]) came to 998 nM. In experiment [2] (setting [6]), the EC50 was determined as 22100 nM.
For the compound `[2H][C@](Nc1cc(Cl)c2ncc(C#N)c(N[C@H](CC)c3ccccc3)c2c1)(c1ccccc1Cl)c1nn[nH]c1C` [Example 298, 8-chloro-6-(((S)-(2-chlorophenyl)(5-methyl-1H-1,2,3-triazol-4-yl)methyl-d)amino)-4-(((R)-1-phenylpropyl)amino)quinoline-3-carbonitrile], the IC50 in experiment [1] (setting [7]) was 121 nM. Also, the EC50 in experiment [2] (setting [6]) came out at 1470 nM.
With `CC[C@@H](Nc1c(C#N)cnc2c(Cl)cc(N[C@@H](c3ccc(F)cc3)c3cn(C(C)C)nn3)cc12)c1ccccc1C` [Example 366, 8-chloro-6-(((S)-(4-fluorophenyl)(1-isopropyl-1H-1,2,3-triazol-4-yl)methyl)amino)-4-(((R)-1-(o-tolyl)propyl)amino)quinoline-3-carbonitrile], the IC50 in experiment [1] (setting [7]) stood at 110 nM. Moreover, the EC50 in experiment [2] (setting [6]) was 1300 nM.
With `CCN1CC[C@@H](n2cc([C@@H](Nc3cc(Cl)c4ncc(C#N)c(Nc5ccc(F)c(Cl)c5)c4c3)c3ccccc3)nn2)[C@H](F)C1` [Example 743, 8-chloro-4-((3-chloro-4-fluorophenyl)amino)-6-(((S)-(1-((3R,4R)-1-ethyl-3-fluoropiperidin-4-yl)-1H-1,2,3-triazol-4-yl)(phenyl)methyl)amino)quinoline-3-carbonitrile], in experiment [1] (setting [5]), the IC50 amounted to 29 nM. Further, the EC50 in experiment [2] (setting [6]) was 575 nM.
For `[2H][C@](Nc1cc(F)c2ncc(C#N)c(NC(CCC#N)c3ccccc3)c2c1)(c1cccc(C#N)c1)c1cn(C2CC2)nn1` (stereo partly drawn) [Example 254, 4-((3-cyano-1-phenylpropyl)amino)-6-(((S)-(3-cyanophenyl) (1-cyclopropyl-1H-1,2,3-triazo1-4-yl)methyl-d)amino)-8-fluoroquinoline-3-carbonitrile], the IC50 in experiment [1] (setting [7]) was determined as 3 nM. For the same compound, in experiment [2] (setting [6]), the EC50 stood at 42 nM.
Regarding `Cc1cc(F)ccc1[C@H](Nc1cc(Cl)c2ncc(C#N)c(NCC(C)(C)C)c2c1)c1cn(C2(C(F)F)CC2)nn1` [Example 1076, (S)-8-chloro-6-(((1-(1-(difluoromethyl)cyclopropyl)-1H-1,2,3-triazol-4-yl)(4-fluoro-2-methylphenyl)methyl)amino)-4-(neopentylamino)quinoline-3-carbonitrile], the IC50 in experiment [1] (setting [3]) is 37 nM. Besides, the EC50 in experiment [2] (setting [4]) was 182 nM.
On to `COC[C@@H](C)Nc1c(C#N)cnc2c(Cl)cc(N[C@@H](c3ccccc3)c3cn(C4CCN(C(C)(C)C)CC4)nn3)cc12` [Example 556, 6-(((S)-(1-(1-(tert-butyl)piperidin-4-yl)-1H-1,2,3-triazol-4-yl)(phenyl)methyl)amino)-8-chloro-4-(((R)-1-methoxypropan-2-yl)amino) quinoline-3-carbonitrile], for which the half-inhibitory concentration (IC50) in experiment [1] (setting [5]) came to 725 nM. Besides, the EC50 in experiment [2] (setting [6]) is over 10000 nM.
Take `CC(C)(C)N1CCC(n2cc([C@@H](Nc3cc(Cl)c4ncc(C#N)c(Nc5ccc6c(cnn6Cc6ccccc6)c5)c4c3)c3ccc(Cl)cc3)nn2)CC1` [Example 686, (S)-4-((1-benzyl-1H-indazol-5-yl)amino)-6-(((1-(1-(tert-butyl)piperidin-4-yl)-1H-1,2,3-triazol-4-yl)(4-chlorophenyl)methyl)amino)-8-chloroquinoline-3-carbonitrile]: the IC50 in experiment [1] (setting [5]) worked out at 7240 nM. For the same compound, in experiment [2] (setting [6]), the EC50 came out at 5900 nM.
In the case of `CCN1CCC(n2cnc(C(Nc3cc(Cl)c4ncc(C#N)c(Nc5ccc(F)c(Cl)c5)c4c3)c3ccccc3)c2)CC1` (stereo not drawn) [Compound 27, 8-chloro-4-((3-chloro-4-fluorophenyl)amino)-6-(((1-(1-ethylpiperidin-4-yl)-1H-imidazol-4-yl)(phenyl)methyl)amino) quinoline-3-carbonitrile], in experiment [1] (setting [7]), the IC50 was found to be 11 nM. Also, the EC50 in experiment [2] (setting [6]) amounted to 232 nM.
In the case of `Cc1c(-c2ccncc2)cccc1[C@H](Nc1cc(C#N)c2ncc(C#N)c(NCC(C)(C)C)c2c1)c1cn(C2(C(F)F)CC2)nn1` [Example 1141, (S)-6-(((1-(1-(difluoromethyl)cyclopropyl)-1H-1,2,3-triazol-4-yl)(2-methyl-3-(pyridin-4-yl)phenyl)methyl)amino)-4-(neopentylamino)quinoline-3,8-dicarbonitrile], in experiment [1] (setting [3]), the IC50 was found to be 2 nM. Moreover, in experiment [2] (setting [4]), the EC50 is 69 nM.
With `Cc1c(-c2cnco2)cccc1[C@H](Nc1cc(C#N)c2ncc(C#N)c(NCC(C)(C)C)c2c1)c1cn(C2(C(F)F)CC2)nn1` [Example 1158, (S)-6-(((1-(1-(difluoromethyl)cyclopropyl)-1H-1,2,3-triazol-4-yl)(2-methyl-3-(oxazol-5-yl)phenyl)methyl)amino)-4-(neopentylamino)quinoline-3,8-dicarbonitrile], the IC50 in experiment [1] (setting [3]) stood at 2 nM. In addition, the EC50 in experiment [2] (setting [4]) was found to be 26 nM.
Consider `CC(C)(C)CNc1c(C#N)cnc2c(C#N)cc(N[C@@H](c3ccccc3Cl)c3nnn(C4(C)CC4)c3F)cc12` [Example 1159, (S)-6-(((2-chlorophenyl)(5-fluoro-1-(1-methylcyclopropyl)-1H-1,2,3-triazol-4-yl)methyl)amino)-4-(neopentylamino)quinoline-3,8-dicarbonitrile], for which the IC50 in experiment [1] (setting [3]) was 50 nM. The EC50 in experiment [2] (setting [4]) came to 421 nM.
Regarding `CC(C)(C)N1CCC(n2cc([C@@H](Nc3cc(Cl)c4ncc(C#N)c(NC5CCCC5)c4c3)c3ccc(Cl)cc3)nn2)CC1` [Example 714, (S)-6-(((1-(1-(tert-butyl)piperidin-4-yl)-1H-1,2,3-triazol-4-yl)(4-chlorophenyl)methyl)amino)-8-chloro-4-(cyclopentylamino)quinoline-3-carbonitrile], the IC50 in experiment [1] (setting [5]) is 131 nM. Besides, in experiment [2] (setting [6]), the EC50 came out at 1700 nM.
As to `[2H][C@](Nc1cc(F)c2ncc(C#N)c(N[C@@H](CCC#N)c3ccccc3)c2c1)(c1cccc(C#N)c1)c1cn(C2CC2)nn1` [Example 165, 4-(((S)-3-cyano-1-phenylpropyl)amino)-6-(((S)-(3-cyanophenyl) (1-cyclopropyl-1H-1,2,3-triazol-4-yl)methyl-d)amino)-8-fluoroquinoline-3-carbonitrile], the IC50 in experiment [1] (setting [7]) worked out at 2090 nM. For the same compound, in experiment [2] (setting [6]), the EC50 came out at 6270 nM.
As for `C[C@@H](Nc1c(C#N)cnc2c(Cl)cc(N[C@@H](c3ccccc3)c3cn(C4CCN(C(C)(C)C)CC4)nn3)cc12)c1ccccc1` [Example 569, 6-(((S)-(1-(1-(tert-butyl)piperidin-4-yl)-1H-1,2,3-triazol-4-yl)(phenyl)methyl)amino)-8-chloro-4-(((R)-1-phenylethyl)amino)quinoline-3-carbonitrile], the IC50 in experiment [1] (setting [5]) was 7 nM. In addition, in experiment [2] (setting [6]), the EC50 is 721 nM.
In the case of `N#Cc1cnc2c(Cl)cc(N[C@@H](c3ccc(Cl)cc3)c3cn(C4COC4)nn3)cc2c1Nc1cnc(F)c(F)c1` [Example 494, (S)-8-chloro-6-(((4-chlorophenyl)(1-(oxetan-3-yl)-1H-1,2,3-triazol-4-yl)methyl)amino)-4-((5,6-difluoropyridin-3-yl)amino)quinoline-3-carbonitrile], the IC50 in experiment [1] (setting [5]) turned out to be 47 nM. For the same compound, the EC50 in experiment [2] (setting [6]) is 585 nM.

As usually defined, the IC50 is the point on the concentration scale where inhibition reaches its midpoint. Broadly, the EC50 is the concentration that produces a half-maximal response.
